Measurements reported in publication PMC6278306, “Anti-Leishmanial and Cytotoxic Activities of a Series of Maleimides: Synthesis, Biological Evaluation and Structure-Activity Relationship” (Molecules, 2018).
In brackets after ≈: the same amount, converted by molar mass.

Legend:
[1] = Cytotoxicity assay (Alamar Blue); format: cell-based; details: human, concentrations 10–0.0032 μg/mL
Procedure: In order to verify the safety of maleimides, they were tested for cytotoxicity against human monocytic leukemia cells (THP1) 50% cytotoxic concentration values represent the concentration of compound required to kill 50% of the THP1 cells were calculated (CC50). The selectivity indices were calculated using the formula SI = CC50 /IC50, against promastigotes. […] SIs of 16 and 42 were greater than 781.3.
(§1) In vitro anti-leishmanial assay. The antileishmanial activity of the compounds was tested in vitro against a culture of L. donovani promastigotes. The promastigotes were grown in RPMI 1640 medium supplemented with 10% fetal calf serum (Gibco Chem. Co., 81 Wyman Street, Waltham, MA, USA) at 26 °C. A three day old culture was diluted to 5 × 10^5 promastigotes/mL. Drug dilutions were prepared directly in cell suspension in 96-well plates. Plates were incubated at 26 °C for 48 h and the growth of Leishmania promastigotes was determined by the Alamar blue assay as described earlier. Standard fluorescence was measured on a Fluostar Galaxy plate reader (BMG Lab Technologies, Offenburg, Germany) at an excitation wavelength of 544 nm and an emission wavelength of 590 nm. Pentamidine and amphotericin B were used as the standard anti-leishmanial agents. IC50 values were computed from dose-response curves as above. The tested compounds were diluted with six concentrations (from 40–0.0128 μg/mL). Cytotoxicity assay. The in vitro cytotoxicity was determined against human monocytic leukemia cells (THP1) with a simple colorimetric method using the dye Alamar Blue. […] Cells were grown to a density between 0.2 and 1 × 10^6 cells/mL. Culture medium was replaced every 2–3 days with fresh growth medium. DMSO was used as the solvent, and the test compounds was with six concentrations from 10–0.0032 μg/mL.
The in vitro cytotoxicity was determined against human monocytic leukemia cells (THP1) with a simple colorimetric method using the dye Alamar Blue, which was reported in the reference (Mikus, J.; Steverding, D. A simple colorimetric method to screen drug cytotoxicity against Leishmania, using the dye Alamar Blue. Parasitol Int. 2000, 48(3),265-269.). THP1 suspensions were grown in RPMI-1640 medium supplemented with 10% FBS, 2 mM glutamine, 50 μg/mL […]
were grown to a density between 0.2 and 1×10^6 cells/mL. Culture medium was replaced every 2-3 days with fresh growth medium. DMSO was used as the solvent, and the test compounds was with six concentrations from 10-0.0032μg/mL.

[2] = tested on: L. donovani promastigotes; experiment: In vitro anti-leishmanial assay (Alamar blue, promastigotes); format: cell-based, Leishmania donovani; details: for IC50: Leishmania donovani, 48 h, read-out: L. donvani IC50; for SI: SI = CC50 /IC50, THP1 vs promastigotes
Procedure: Anti-leishmanial activity in vitro was described in terms of IC50, which is the effective concentration (μg/mL) required to achieve 50% growth inhibition, with promastigotes in their exponential growth phase.
as §1, with “Pentamidine and amphotericin B were used as the standard anti-leishmanial agents.” left out

[3] = THP1 cells (human monocytic leukemia)

| Compound | CC50 [1, 3] | IC50 [2] | SI [2] | melting point | CC50 ([1]; THP1 cells) | anti-leishmanial activity, times better than amphotericin B ([2]; L. donovani, relative to amphotericin B) |
| --- | --- | --- | --- | --- | --- | --- |
| CCCCCCN1C(=O)C=CC1=O [Compound 3] | > 10 µg/mL | 0.11 µg/mL (≈ 0.607 µM) | >90.9 |  |  |  |
| CCc1cccc(CC)c1N1C(=O)C=C(C)C1=O [Compound 24] | 4.39 µg/mL (≈ 18 µM) | 0.55 µg/mL (≈ 2.26 µM) | 8.0 | 195.8 to 197.3 °C |  |  |
| O=C1C(Cl)=C(Cl)C(=O)N1c1ccccc1 [Compound 34] |  | 0.76 µg/mL (≈ 3.14 µM) | >13.2 |  | > 10 µg/mL |  |
| O=C1C(Cl)=C(Cl)C(=O)N1c1cc(Cl)cc(Cl)c1 [Compound 43] |  | 0.99 µg/mL (≈ 3.18 µM) | >10.1 |  | > 10 µg/mL |  |
| CCCCN1C(=O)C(Cl)=C(Cl)C1=O [Compound 28] |  | 0.47 µg/mL (≈ 2.12 µM) | >21.3 |  | > 10 µg/mL |  |
| CC1=CC(=O)N(c2cc(Cl)cc(Cl)c2)C1=O [Compound 25] |  | 0.34 µg/mL (≈ 1.33 µM) | 2.4 | 170.8 to 173.2 °C | 0.8 µg/mL (≈ 3.12 µM) |  |
| CCCCCCCCCCCCN1C(=O)C=CC1=O [Compound 5] | > 10 µg/mL | 2.21 µg/mL (≈ 8.33 µM) | >4.5 |  |  |  |
| Cc1ccc(N2C(=O)C=CC2=O)cc1 [Compound 10] | > 10 µg/mL | 0.15 µg/mL (≈ 0.801 µM) | >66.7 |  |  |  |
| O=C1C(Cl)=C(Cl)C(=O)N1CCCc1ccccc1 [Compound 33] | > 10 µg/mL | 0.4 µg/mL (≈ 1.41 µM) | >25.0 |  |  |  |
| CCCCCCCCN1C(=O)C=C(C)C1=O [Compound 20] | 8.1 µg/mL (≈ 36.3 µM) | 0.96 µg/mL (≈ 4.3 µM) | 8.4 |  |  |  |
| CC1=CC(=O)N(CC(C)C)C1=O [Compound 26] | > 10 µg/mL | 0.64 µg/mL (≈ 3.83 µM) | >15.6 |  |  |  |
| CCCCCCCCN1C(=O)C(Cl)=C(Cl)C1=O [Compound 31] |  | 0.48 µg/mL (≈ 1.73 µM) | >20.8 |  | > 10 µg/mL |  |
| Cc1cccc(C)c1N1C(=O)C(Cl)=C(Cl)C1=O [Compound 38] |  | 0.45 µg/mL (≈ 1.67 µM) | >22.2 | 200.8 to 201.6 °C | > 10 µg/mL |  |
| CC1=CC(=O)N(CCc2ccccc2)C1=O [Compound 22] | 5.99 µg/mL (≈ 27.8 µM) | 1.22 µg/mL (≈ 5.67 µM) | 4.9 |  |  |  |
| O=C1C=CC(=O)N1c1cc(F)c(F)c(F)c1 [Compound 15] | > 10 µg/mL | 0.21 µg/mL (≈ 0.925 µM) |  | 153.4 to 165.6 °C |  |  |
| CCCCCN1C(=O)C(Cl)=C(Cl)C1=O [Compound 29] |  | 0.65 µg/mL (≈ 2.75 µM) | >15.4 |  | > 10 µg/mL |  |
| Cc1cccc(C)c1N1C(=O)C=CC1=O [Compound 13] | 3.65 µg/mL (≈ 18.1 µM) | 0.1 µg/mL (≈ 0.497 µM) | 36.5 | 188.8 to 190.4 °C |  |  |
| CCCCCN1C(=O)C=C(C)C1=O [Compound 18] | 7.64 µg/mL (≈ 42.2 µM) | 0.58 µg/mL (≈ 3.2 µM) | 13.2 |  |  |  |
| CCCCCCN1C(=O)C(Cl)=C(Cl)C1=O [Compound 30] |  | 0.49 µg/mL (≈ 1.96 µM) | >20.4 |  | > 10 µg/mL |  |
| CCCCCN1C(=O)C=CC1=O [Compound 2] | > 10 µg/mL | 0.36 µg/mL (≈ 2.15 µM) | >27.8 |  |  |  |
| O=C1C(Cl)=C(Cl)C(=O)N1CCc1ccccc1 [Compound 32] |  | 1.64 µg/mL (≈ 6.07 µM) | >6.1 |  | > 10 µg/mL |  |
| N=C(N)c1ccc(OCCCCCOc2ccc(C(=N)N)cc2)cc1 [pentamidine, reference compound] |  | 0.64 µg/mL (≈ 1.88 µM) |  |  |  |  |
| CC(C)CN1C(=O)C=CC1=O [Compound 16] | > 10 µg/mL | < 0.0128 µg/mL |  | 52.8 to 53.9 °C |  | 10 |
| O=C1C=CC(=O)N1c1ccc(F)cc1 [Compound 11] | > 10 µg/mL | 0.32 µg/mL (≈ 1.67 µM) | >31.3 |  |  |  |
